Measurements reported in US20150118267A1, “METHOD OF USING THEAFLAVIN” (priority 2013, published 2015).

Tests used:
Type in all cases: in vivo, mice
[1] = system: Sheep red blood cell (SRBC); assay: Mouse plasma hemolysin assay; details: for Antibody integrand: plasma on day 5 after SRBC injection, n=10
Protocol: (§1) For each study, forty mice were divided into 4 groups with 10 mice per group (n=10). These four groups were control, theaflavin (low), theaflavin (mid), and theaflavin (high). The latter three were theaflavin-treated groups in which theaflavin (capsule, Xiayie™, prepared according to the method described in U.S. Pat. No. 8,282,970) was fed to mice at a dose of 83 mg, 250 mg, and 500 mg per kg body weight per day for 30 days for the low, mid, and high group, respectively. Water was fed for the control group. For the organ weight study, animals were sacrificed after the 30-day study, followed by collecting spleens and thymus for weight measurement. For the other studies, animals were harvested for further analyses as described below. Statistical differences between groups were calculated using SPSS 11.0 with student t test plus Dunnett method.
Each mouse was given a single injection of 0.2 ml of 2% SRBC from the above-described preparation. On day 5 after the SRBC injection, the plasma was collected by centrifuging the mouse eye blood at 2000 r/min for 10 min, then was stored into a sterile tube. With a micro hemagglutinin-assay plate, the plasma was diluted to a series of concentrations, then […] of 0.5% SRBC suspension was added. The contents were is mixed by vortexing and incubated for 3 h in a 37° C., 5% CO2 incubator, after which the hemagglutination was observed under microscope. The data were presented as antibody integrand.

[2] = system: Delayed-type hypersensitivity (DTH) induced by sheep red blood cell (SRBC); assay: Mouse footpad swelling assay (DTH); details: for Footpad swelling: 24 hours after second SRBC injection, n=10
Protocol: For each study, forty mice were divided into 4 groups with 10 mice per group (n=10). These four groups were control, theaflavin (low), theaflavin (mid), and theaflavin (high). The latter three were theaflavin-treated groups in which theaflavin (capsule, Xiayie™, prepared according to the method described in U.S. Pat. […] […] […] […] Statistical differences between groups were calculated using SPSS 11.0 with student t test plus Dunnett method.
Delayed-type hypersensitivity (DTH) is an immune reaction induced by antigen. In the mice footpads at which DTH was elicited, transient swellings which usually peaked at 24-48 hours after the antigen challenge was observed. This assay of measuring footpad swelling of mice caused by a DTH reaction was used to test effects of theaflavin is on immune responses.
The Sheep red blood cell (SRBC) was taken from sheep and washed triple with physiological saline, centrifugated at 1500 g for 10 min, and adjusted to a final concentration of 2%. Each mouse was given a single injection of 0.2 ml of prepared 2% SRBC. On day 4 after the SRBC injection, each mouse was given an […] injection (the second injection) of 0.02 ml of prepared 20% SRBC. Mouse footpad thicknesses were measured before and 24 hours after the second injection. Mouse footpad swelling values were calculated from the difference between these two measurements.

[3] = Weights of immune-related organs (spleen, thymus) after 30-day feeding; details: for Spleen Weight change / Thymus Weight change: mice, n=10, 30 days
Protocol: (§2) Female mice (Kuengming, China) weighing 18-22 g were used. The animals were housed in individual stainless steel cages in an air-conditioned room under a 12:12 hour light:dark cycle. A commercial pellet diet and water were provided throughout the experiment. All procedures were conducted in accordance with the P.R. China legislation under No. 8910M047 on the use and care of laboratory animals.
as §1, with “No. 8,282,970) was fed to mice at a dose of 83 mg, 250 mg, and 500 mg per kg body weight per day for 30 days for the low, mid, and high group, respectively.” left out

[4] = Mouse body weight after 30-day theaflavin feeding; details: for BW change: mice, n=10, 30 days
Protocol: as §2
as §1, with “No. 8,282,970) was fed to mice at a dose of 83 mg, 250 mg, and 500 mg per kg body weight per day for 30 days for the low, mid, and high group, respectively.” left out

[5] = theaflavin treatment for 30 days, compared to control

## O=c1c(O)cc([C@H]2Oc3cc(O)cc(O)c3C[C@H]2O)cc2c([C@H]3Oc4cc(O)cc(O)c4C[C@H]3O)cc(O)c(O)c12 [Theaflavin, theaflavin]
[1]; 167 mg/kg.BW (Low)
  Antibody integrand: 143.80 ± 35.23
[1]; 333 mg/kg.BW (Mid)
  Antibody integrand: 123.20 ± 20.37
[1]; 500 mg/kg.BW (High)
  Antibody integrand: 146.40 ± 26.46
[1]; theaflavin low and high groups
  mouse plasma hemolysin assay result compared to control: statistically significant results
[2]; 167 mg/kg.BW (Low)
  Footpad swelling: 1.46 ± 0.39 mm
[2]; 333 mg/kg.BW (Mid)
  Footpad swelling: 1.24 ± 0.24 mm
[2]; 500 mg/kg.BW (High)
  Footpad swelling: 1.53 ± 0.49 mm
[2]; theaflavin low and high groups
  mouse footpad swelling compared to control: statistically significant mouse footpad swelling
[3]; 167 mg/kg.BW (Low)
  Spleen Weight change: 0.47 ± 0.13%
  Thymus Weight change: 0.42 ± 0.07%
[3]; 333 mg/kg.BW (Mid)
  Spleen Weight change: 0.46 ± 0.10%
  Thymus Weight change: 0.43 ± 0.12%
[3]; 500 mg/kg.BW (High)
  Spleen Weight change: 0.45 ± 0.07%
  Thymus Weight change: 0.42 ± 0.11%
[3]; [5]
  effect on weights of immune system related organs, i.e., spleen and thymus: no effect
[4]; study I, 167 mg/kg.BW (Low)
  BW change: 12.70 ± 0.82 g
[4]; study I, 333 mg/kg.BW (Mid)
  BW change: 12.80 ± 0.79 g
[4]; study I, 500 mg/kg.BW (High)
  BW change: 12.50 ± 0.71 g
[4]; study II, 167 mg/kg.BW (Low)
  BW change: 12.00 ± 0.67 g
[4]; study II, 333 mg/kg.BW (Mid)
  BW change: 11.80 ± 0.63 g
[4]; study II, 500 mg/kg.BW (High)
  BW change: 12.70 ± 0.92 g
[4]; study III, 167 mg/kg.BW (Low)
  BW change: 11.90 ± 0.88 g
[4]; study III, 333 mg/kg.BW (Mid)
  BW change: 12.80 ± 0.63 g
[4]; study III, 500 mg/kg.BW (High)
  BW change: 11.90 ± 0.57 g
[4]; study IV, 167 mg/kg.BW (Low)
  BW change: 13.00 ± 0.94 g
[4]; study IV, 333 mg/kg.BW (Mid)
  BW change: 11.90 ± 0.77 g
[4]; study IV, 500 mg/kg.BW (High)
  BW change: 12.00 ± 0.47 g
[4]; [5]
  effect on mice body weights: no effect
